From patent US20240158446A1, “CYCLIC COMPOUND HAVING SELECTIVE INHIBITORY ACTION ON KRAS OVER HRAS AND NRAS” (CHUGAI SEIYAKU KABUSHIKI KAISHA, priority 2021, published 2024)
Where a SMILES comes first, the peptide text is derived from it. Bridges are numbered along the chain shown (N, C = ends). [ ]: non-standard residue; d: D form. The star is where a group is joined. hPhe(3-Cl-4-CF3) = N[C@@H](CCc1ccc(C(F)(F)F)c(Cl)c1)C(=O)O; NPrPhe(4-CF3) = CCCN[C@@H](Cc1ccc(C(F)(F)F)cc1)C(=O)O; NMeGly(cPent) = CN[C@H](C(=O)O)C1CCCC1; Hyp = O=C(O)[C@@H]1C[C@@H](O)CN1; NMeD = CN[C@@H](CC(=O)O)C(=O)O; NMeL = CN[C@@H](CC(C)C)C(=O)O; Morpholide = C1CN(*)CCO1; Ac5c = NC1(C(=O)O)CCCC1; Aze = O=C(O)[C@@H]1CCN1; Abu = CC[C@H](N)C(=O)O; Sar = CNCC(=O)O

Key:
[1] = target: GDP-bound HRAS wild-type protein (Homo sapiens, UniProt P01112); test: Binding to HRAS by surface plasmon resonance (SPR), Single Cycle Kinetics; details: SPR, GDP-bound HRAS wild-type protein vs GDP-bound KRAS wild-type protein
[2] = target: GDP-bound NRAS wild-type protein (Homo sapiens, UniProt P01111); test: Binding to NRAS by surface plasmon resonance (SPR), Single Cycle Kinetics; details: SPR, GDP-bound NRAS wild-type protein vs GDP-bound KRAS wild-type protein
[3] = system: human lung cancer strain NCI-H441;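 also: cell proliferation inhibition after four days measured by CellTiter-Glo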

Sequence of GDP-bound NRAS wild-type protein (P01111 whole entry): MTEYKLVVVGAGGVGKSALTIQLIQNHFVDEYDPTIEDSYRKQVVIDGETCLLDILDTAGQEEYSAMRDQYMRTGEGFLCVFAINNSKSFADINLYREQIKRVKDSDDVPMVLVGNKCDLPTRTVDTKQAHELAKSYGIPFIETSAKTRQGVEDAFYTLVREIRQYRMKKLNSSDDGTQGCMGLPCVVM
Sequence of GDP-bound HRAS wild-type protein (P01112 whole entry): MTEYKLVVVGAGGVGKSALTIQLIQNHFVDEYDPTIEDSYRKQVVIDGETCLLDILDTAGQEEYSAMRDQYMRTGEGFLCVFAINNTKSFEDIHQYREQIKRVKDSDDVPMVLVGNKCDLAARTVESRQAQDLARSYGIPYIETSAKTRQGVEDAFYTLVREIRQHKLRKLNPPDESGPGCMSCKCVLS

Structure (SMILES)	HRAS/KRAS (ratio of KD value for HRAS to KD value for KRAS) [1]	NRAS/KRAS (ratio of KD value for NRAS to KD value for KRAS) [2]	IC50 [3]	HRAS/KRAS (ratio of KD value with respect to HRAS to KD value with respect to KRAS) [1]	NRAS/KRAS (ratio of KD value with respect to NRAS to KD value with respect to KRAS) [2]
CCCN1C(=O)CN(C)C(=O)[C@@H]2CCN2C(=O)[C@H]([C@@H](C)CC)NC(=O)[C@H](CC(C)C)N(C)C(=O)C[C@@H](C(=O)N2CCOCC2)N(C)C(=O)[C@H](C2CCCC2)N(C)C(=O)C2(CCCC2)NC(=O)[C@@H]2C[C@@H](OC)CN2C(=O)[C@H](CCc2ccc(C(F)(F)F)c(Cl)c2)NC(=O)CN(C)C(=O)[C@@H]1Cc1ccc(C(F)(F)F)cc1 [PP0309] ([NMeL]I[Aze][Sar][NPrPhe(4-CF3)][Sar][hPhe(3-Cl-4-CF3)][Hyp](Me)[Ac5c][NMeGly(cPent)][NMeD]-Morpholide; lactam N-11)	B (a compound having 3 or more and less than 10 is denoted as B)	B (a compound having 3 or more and less than 10 is denoted as B)	11.7 nM	–	–
CCO[C@@H]1C[C@H]2C(=O)NC3(CC(C)(C)C3)C(=O)N(C)[C@@H](C3CCCC3)C(=O)N(C)[C@H](C(=O)N(C)C)CC(=O)N(C)[C@@H](CC(C)C)C(=O)N[C@@H]([C@@H](C)CC)C(=O)N(C3CC3)CC(=O)N(C)[C@H]3C/C=C\CCN(C3=O)[C@@H](Cc3ccc(C)cc3)C(=O)N(C)CC(=O)N[C@@H](CCc3cc(F)c(C(F)(F)F)c(F)c3)C(=O)N2C1 [PP2109]	A (a compound having 10 or more and less than 20 is denoted as A)	A (a compound having 10 or more and less than 20 is denoted as A)	5.7 nM	–	–
CCCN1C(=O)CN(C)C(=O)[C@@H]2CCN2C(=O)[C@H](CC)NC(=O)[C@H](CC(C)C)N(C)C(=O)C[C@@H](C(=O)N2CCOCC2)N(C)C(=O)[C@H](C2CCCC2)N(C)C(=O)C2(CCCC2)NC(=O)[C@@H]2CCCN2C(=O)[C@H](CCc2ccc(C(F)(F)F)c(Cl)c2)NC(=O)CN(C)C(=O)[C@@H]1Cc1ccc(C(F)(F)F)cc1 [PP0303] ([NMeL][Abu][Aze][Sar][NPrPhe(4-CF3)][Sar][hPhe(3-Cl-4-CF3)]P[Ac5c][NMeGly(cPent)][NMeD]-Morpholide; lactam N-11)	B (a compound having 3 or more and less than 10 is denoted as B)	B (a compound having 3 or more and less than 10 is denoted as B)	349 nM	–	–
CC[C@H](C)[C@@H]1NC(=O)[C@H](CC(C)C)N(C)C(=O)C[C@@H](C(=O)N2CCOCC2)N(C)C(=O)[C@H](C2CCCC2)N(C)C(=O)C2(CCCC2)NC(=O)[C@@H]2CCCN2C(=O)[C@H](CCc2ccc(C(F)(F)F)c(Cl)c2)NC(=O)CN(C)C(=O)[C@H](Cc2ccccc2)N2CC=CC[C@@H](C2=O)N(C)C(=O)CN(C)C1=O [PP0528]	–	–	21.8 nM	C (A compound having a KD ratio of 0.1 or more and less than 3 is denoted as C)	C (A compound having a KD ratio of 0.1 or more and less than 3 is denoted as C)
CCO[C@@H]1C[C@H]2C(=O)NC3(CCC3)C(=O)N(C)[C@@H](C3CCCC3)C(=O)N(C)[C@H](C(=O)N(C)C)CC(=O)N(C)[C@@H](CC(C)(C)C)C(=O)N[C@@H]([C@@H](C)CC)C(=O)N(C)CC(=O)N(C)[C@H]3CCCCCN(C3=O)[C@@H](Cc3ccc(C(F)(F)F)cc3)C(=O)N(C)CC(=O)N[C@@H](CCc3cc(F)c(C(F)(F)F)c(F)c3)C(=O)N2C1 [PP0669]	–	–	20.3 nM	B (a compound having 3 or more and less than 10 is denoted as B)	B (a compound having 3 or more and less than 10 is denoted as B)
